One may read the Ki as a measure of affinity in units of concentration, obtained from inhibition or displacement. The IC50 is the concentration that gives 50% inhibition.

The values that follow come from publication PMC10135033, “Sulfonamidoboronic Acids as “Cross-Class” Inhibitors of an Expanded-Spectrum Class C Cephalosporinase, ADC-33, and a Class D Carbapenemase, OXA-24/40: Strategic Compound Design to Combat Resistance in Acinetobacter baumannii” (Antibiotics, 2023).

Experiment [1] deals with E. coli DH10B pBCSK, blaADC-7. On the set-up: method as in PMID 29144724. To be noted: with CR167; cited from earlier work.
The target in experiment [2] is ADC-7. On the set-up: method as in PMID 29144724. The settings on record: cited from earlier work.
The subject of experiment [3] is KPC-2. More on the design: method as in PMID 26729496. To be noted: cited from earlier work.
Experiment [4] deals with T1, OXA-24/40 (Acinetobacter baumannii, UniProt Q8RLA6).
T1 construct: made in house
Put plainly: Ki determination, competition assay with nitrocefin (NCF) as substrate. It counts as biochemical. How it is done:
(§1) The affinity of CR167 for the two different β-lactamases was measured in competition assays using nitrocefin (NCF) as the indicator substrate (Table 1).
(§2) The binding affinity of each of the compounds 6a–e with ADC-33 and with OXA-24/40 was determined after 5 min pre-incubation of boronic acid and the enzyme, using competition assays with nitrocefin (NCF) as the substrate. […] These compounds differ in three structural characteristics: stereochemistry, the presence of the m-carboxylate on the aromatic ring, and the small chain linked to the chiral center. […] Finally, the smaller the steric hindrance is at the R1 position, the higher the affinity is.
(§3) Ki values were determined by using nitrocefin as a reporter substrate and treating the compounds as competitive inhibitors. Steady-state kinetic parameters were determined by combining pure enzyme with nitrocefin in 50 mM NaH2PO4; 25 mM NaHCO3, pH 7.4 (for OXA-24/40); or 50 mM NaH2PO4, pH 7.4 (for ADC-33), at room temperature. Changes in absorbance were measured on a Cary 60 UV−Vis spectrophotometer (Agilent Technologies) and converted to velocity using the change-in-extinction coefficient specific to nitrocefin (ε = 17,400 M^−1·cm^−1 at 482 nm). Initial velocities were fit to the Michaelis–Menten equation, yielding kcat and Km values. Next, the enzyme was challenged with a constant concentration of nitrocefin and increasing amounts of inhibitor. IC50 values were used to calculate Ki values using the Cheng–Prusoff equation as previously described. Specifically, the measurements of the initial velocities were performed with the addition of 100 µM NCF after a 5 min pre-incubation of the enzyme (2 nM) with increasing concentration of the inhibitor [37]. To determine the average velocities (v0), data from three experiments were fit to Equation (1): (1) v0=vu −{vu[I]/IC 50+[I]} where vu represents the NCF uninhibited velocity and IC50 represents the inhibitor concentration that results in a 50% reduction in vu. The Ki value was corrected for the NCF affinity (Km values for both OXA-24/40 and ADC-33) with the Cheng–Prusoff equation (Equation (2)): (2) Ki=IC50/(1+[NCF]/KmNCF)

In experiment [5] the target is ADC-33 (Acinetobacter baumannii, UniProt A7Y407). The description is as above. In kind it is biochemical. The settings on record: for Ki: corrected for NCF affinity, 5 min pre-incubation, pH 7.4. How it is done:
as §1, §2, §3

The target of experiment [6] is class C β-lactamase AmpC. On the set-up: method as in PMID 20945905, PMID 23043117. To be noted: AmpC from E. coli; cited from earlier work.
Experiment [7] concerns SHV-1. To be noted: cited from earlier work.

SMILES strings stand for the structures.

T1 sequence (Q8RLA6 22-275): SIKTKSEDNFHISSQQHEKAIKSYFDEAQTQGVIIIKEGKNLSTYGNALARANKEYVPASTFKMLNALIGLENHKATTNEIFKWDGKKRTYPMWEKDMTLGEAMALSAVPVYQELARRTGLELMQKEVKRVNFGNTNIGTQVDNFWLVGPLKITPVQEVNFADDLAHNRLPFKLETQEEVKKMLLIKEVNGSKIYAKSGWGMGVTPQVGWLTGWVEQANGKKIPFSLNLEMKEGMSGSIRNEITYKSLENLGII

On to `O=C(O)c1cccc(CS(=O)(=O)NCB(O)O)c1` [CR167], for which the “MIC for CAZ with CR167” value in experiment [1] was 1 µg/mL. Besides, the Ki was 160 nM in experiment [2], 4400 ± 500 nM in experiment [4], 57 ± 15 nM in experiment [5] and 1.3 nM in experiment [6]. The IC50 in experiment [3] was 200 nM; in experiment [7] it was 430 nM.
Consider `C[C@@H](NS(=O)(=O)Cc1cccc(C(=O)O)c1)B(O)O` [6b], for which the inhibition constant (Ki) in experiment [4] worked out at 5200 ± 500 nM; in experiment [5], 790 ± 200 nM. The “fold higher affinity than compound 6a for OXA-24/40” value in experiment [4] (ratio of Ki, 6b vs 6a) was determined as 120 fold. Moreover, the “fold more potent than 6d, OXA-24/40” value in experiment [4] (ratio of Ki, 6b vs 6d) is given as 60 fold. The “fold more potent than 6d, ADC-33” value in experiment [5] (ratio of Ki, 6b vs 6d) was 28 fold.
